Assay results as given in patent US9730446B2, “Herbicidal compositions comprising 4-amino-3-chloro-6-(4-chloro-2-fluoro-3-methoxyphenyl)pyridine-2-carboxylic acid or a derivative thereof and propyzamide” (Dow AgroSciences LLC, priority 2013, dated 2017).

Columns and labels:
Assay in all cases: Postemergent herbicidal activity, greenhouse
Type in all cases: in vivo
Details in all cases: foliar, 14 d
[1] = test system: VIOTR Viola tricolor L. (wild violet)
Procedure: (§1) Evaluation of Postemergent Herbicidal Activity. Seeds or nutlets of the desired test plant species were planted in Sun Gro Metro-Mix® 360 planting mixture, which typically has a pH of 6.0 to 6.8 and an organic matter content of about 30 percent, in plastic pots with a surface area of 64 square centimeters (cm^2). […] The plants were grown for 7-21 days (d) in a greenhouse with an approximate 15 hour (h) photoperiod which was maintained at about 23-29° C. during the day and 22-28° C. during the night. Nutrients and water were added on a regular basis and supplemental lighting was provided with overhead metal halide 1000-Watt lamps as necessary. The plants were employed for testing when they reached the first or second true leaf stage.
(§2) A weighed amount, determined by the highest rate to be tested, of each test compound was placed in a 25 milliliter (mL) glass vial and was dissolved in 4 mL of a 97:3 volume per volume (v/v) mixture of acetone and dimethyl sulfoxide (DMSO) to obtain concentrated stock solutions. […] The concentrated stock solutions obtained were diluted with 20 mL of an aqueous mixture containing acetone, water, isopropyl alcohol, DMSO, Atplus 411F crop oil concentrate, and Triton® X-155 surfactant in a 48.5:39:10:1.5:1.0:0.02 v/v ratio to obtain spray solutions containing the highest application rates. Additional application rates were obtained by serial dilution of 12 mL of the high rate solution into a solution containing 2 mL of a 97:3 v/v mixture of acetone and DMSO and 10 mL of an aqueous mixture containing acetone, water, isopropyl alcohol, DMSO, Atplus 411F crop oil concentrate, and Triton X-155 surfactant in a 48.5:39:10:1.5:1.0:0.02 v/v ratio to obtain 1/2×, 1/4×, 1/8× and 1/16× rates of the high rate. Compound requirements are based upon a 12 mL application volume at a rate of 187 liters per hectare (L/ha). Formulated compounds were applied to the plant material with an overhead Mandel track sprayer equipped with 8002E nozzles calibrated to deliver 187 L/ha over an application area of 0.503 square meters (m^2) at a spray height of 18 inches (43 cm) above the average plant canopy height. Control plants were sprayed in the same manner with the solvent blank.
(§3) Treatments consisted of the methyl ester of 4-amino-3-chloro-6-(4-chloro-2-fluoro-3-methoxyphenyl)pyridine-2-carboxylic acid (Cmpd 1) as technical grade material and propyzamide (Kerb 50 W) alone and in combination.
(§4) The treated plants and control plants were placed in a greenhouse as described above and watered by subirrigation to prevent wash-off of the test compounds. After 14 d, the condition of the test plants as compared with that of the untreated plants was determined visually and scored on a scale of 0 to 100 percent where 0 corresponds to no injury and 100 corresponds to complete kill.
(§5) Colby's equation was used to determine the herbicidal effects expected from the mixtures (Colby, S. R. Calculation of the synergistic and antagonistic response of herbicide combinations. Weeds 1967, 15, 20-22). More specifically, the following equation was used to calculate the expected activity of mixtures containing two active ingredients, A and B: Expected=A+B−(A×B/100) A=observed efficacy of active ingredient A at the same concentration as used in the mixture; B=observed efficacy of active ingredient B at the same concentration as used in the mixture.

[2] = test system: IPOHE Ipomoea hederacea (L.) Jacq. (ivyleaf morningglory)
Procedure: as §1, §2, §3, §4, §5

[3] = test system: SETFA Setaria faberi Herrm. (giant foxtail)
Procedure: as §1, §2, §3, §4, §5

[4] = test system: CHEAL Chenopodium album L. (common lambsquarters)
Procedure: as §1, §2, §3, §4, §5

[5] = test system: POLCO Polygonum convolvulus L. (wild buckwheat)
Procedure: as §1, §2, §3, §4, §5

[6] = test system: EPHHL Euphorbia heterophylla L. (wild poinsettia)
Procedure: as §1, §2, §3, §4, §5

[7] = test system: ABUTH Abutilon theophrasti Medik. (velvetleaf)
Procedure: as §1, §2, §3, §4, §5

## COC(=O)c1nc(-c2ccc(Cl)c(OC)c2F)cc(N)c1Cl [Cmpd I, methyl ester of 4-amino-3-chloro-6-(4-chloro-2-fluoro-3-methoxyphenyl)pyridine-2-carboxylic acid]
[1]; Cmpd I 2.5 g ae/ha
  % control rated visually, ob (observed): 30%
[1]; Cmpd I 5 g ae/ha
  % control rated visually, ob (observed): 43%
[1]; Cmpd I 10 g ae/ha
  % control rated visually, ob (observed): 62%
[2]; Cmpd I 2.5 g ae/ha
  % control rated visually, ob (observed): 20%
[2]; Cmpd I 5 g ae/ha
  % control rated visually, ob (observed): 38%
[2]; Cmpd I 10 g ae/ha
  % control rated visually, ob (observed): 43%
[3]; Cmpd I 2.5 g ae/ha
  % control rated visually, ob (observed): 0%
[3]; Cmpd I 5 g ae/ha
  % control rated visually, ob (observed): 5%
[3]; Cmpd I 10 g ae/ha
  % control rated visually, ob (observed): 35%
[4]; Cmpd I 2.5 g ae/ha
  % control rated visually, ob (observed): 82%
[4]; Cmpd I 5 g ae/ha
  % control rated visually, ob (observed): 90%
[4]; Cmpd I 10 g ae/ha
  % control rated visually, ob (observed): 91%
[5]; Cmpd I 2.5 g ae/ha
  % control rated visually, ob (observed): 35%
[5]; Cmpd I 5 g ae/ha
  % control rated visually, ob (observed): 25%
[5]; Cmpd I 10 g ae/ha
  % control rated visually, ob (observed): 48%
[6]; Cmpd I 2.5 g ae/ha
  % control rated visually, ob (observed): 85%
[6]; Cmpd I 5 g ae/ha
  % control rated visually, ob (observed): 93%
[6]; Cmpd I 10 g ae/ha
  % control rated visually, ob (observed): 100%
[7]; Cmpd I 2.5 g ae/ha
  % control rated visually, ob (observed): 87%
[7]; Cmpd I 5 g ae/ha
  % control rated visually, ob (observed): 85%
[7]; Cmpd I 10 g ae/ha
  % control rated visually, ob (observed): 90%
